Measurements taken from US10544106B2, “Certain chemical entities, compositions, and methods” (NeuPharma, Inc., priority 2016, dated 2020).

Legend:
BTK = BTK (Homo sapiens (Human), UniProt Q06187); experiment: Z'-LYTE kinase inhibition assay against BTK; type: biochemical; conditions: for IC50: series of concentrations, GraphPad Prism 5; for inhibition at 0.1 µM: compound at 100 nM, ATP concentration at Km
Summary of the method: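 Compounds were titrated over 10 points (3-fold steps, 1% DMSO) against BTK (1.04-10.4 ng) using Tyr 01 substrate at 2 μM and ATP at Km, pH 7.5 HEPES buffer with MgCl2 and EGTA. After one hour each of reaction and development at room temperature, fluorescence gave percent inhibition and IC50.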

OCI-Ly10 cells = experiment: OCI-Ly10 cell proliferation assay (Alamar Blue, 72 hours); type: cell-based; conditions: Homo sapiens
Procedure: OCI-Ly10 cells were cultured in Iscove's DMEM supplemented with 20% fetal bovine serum and 1× penicillin/streptomycin/glutamine. The cells were maintained in T175 flasks under 5% CO2 in a 37 ° C. humidified incubator for 5 days prior to plating and assay.
Cells were pooled by centrifugation (200 ref, 8 minutes) and resuspended in fresh medium to a concentration of 2.00E+05 cells/ml. 200 µl of the cell suspension was added to each well (40,000 cells/well) of a black-walled 96 well plate to which 1 μl of compound (n=3 per concentration) in 100% DMSO (0.5% final concentration) was added per well. Vehicle and cell free wells were also included in the assay. The dosed cells were cultured under normal conditions for 72 hours.
Cell proliferation is measured using the dye Alamar Blue (resazurin). Resazurin is reduced to resorufin by cellular enzymes and is fluorescent (544 nm excitation, 612 nm emission). Fluorescence intensity is proportional to cell number. Resazurin was prepared in PBS to a stock concentration of 440 μM. 40 μl of the 440 μM resazurin stock solution was added 3 hours prior to the 72 hour termination of the assay. The plate was returned to normal culture conditions and fluorescence measurements were collected using a Cytation3 multimode plate reader (Biotek) at 72 hours.
The scale utilized in Table 8 is as follows: ++ less than 50 nM and + greater than 50 nM.

Chain of BTK (Q06187 whole entry): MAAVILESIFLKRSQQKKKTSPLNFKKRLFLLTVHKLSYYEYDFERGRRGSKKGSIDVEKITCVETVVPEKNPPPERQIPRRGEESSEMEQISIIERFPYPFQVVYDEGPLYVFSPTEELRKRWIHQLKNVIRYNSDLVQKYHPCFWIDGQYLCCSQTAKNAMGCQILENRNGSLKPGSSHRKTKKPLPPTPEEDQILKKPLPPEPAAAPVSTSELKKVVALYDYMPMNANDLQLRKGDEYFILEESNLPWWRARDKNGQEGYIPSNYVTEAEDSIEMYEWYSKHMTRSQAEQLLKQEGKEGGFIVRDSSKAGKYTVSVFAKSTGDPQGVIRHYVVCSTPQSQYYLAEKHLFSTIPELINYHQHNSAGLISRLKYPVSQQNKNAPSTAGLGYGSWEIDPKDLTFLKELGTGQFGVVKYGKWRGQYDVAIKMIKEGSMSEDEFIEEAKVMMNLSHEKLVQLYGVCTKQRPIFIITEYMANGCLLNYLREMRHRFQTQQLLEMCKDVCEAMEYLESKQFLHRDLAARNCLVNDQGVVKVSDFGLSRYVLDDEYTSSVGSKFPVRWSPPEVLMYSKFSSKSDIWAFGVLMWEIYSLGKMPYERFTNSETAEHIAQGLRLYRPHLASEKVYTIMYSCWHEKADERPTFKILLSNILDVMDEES

| IC50 (BTK) | IC50 (OCI-Ly10 cells) | inhibition at 0.1 µM (BTK) | Structure (SMILES) |
| --- | --- | --- | --- |
| < 100 nM | < 50 nM | – | C=CC(=O)N1CCC(c2nc(-c3ccc(C(=O)Nc4cc(C5CC5)ccn4)cc3)n3c(N)nccc23)C1 (stereo not shown) [C238, 4-(1-(1-acryloylpyrrolidin-3-yl)-5-amino-imidazo[1,5-c]pyrimidin-3-yl)-N-(4-cyclopropylpyridin-2-yl)benzamide] |
| < 100 nM | < 50 nM | – | CC#CC(=O)N1CCCC(c2nc(-c3ccc(C(=O)Nc4ccccn4)cc3)n3c(N)nccc23)C1 (stereo not shown) [C236, 4-(5-amino-1-(1-(but-2-ynoyl)piperidin-3-yl)imidazo[1,5-c]pyrimidin-3-yl)-N-(pyridin-2-yl)benzamide] |
| < 100 nM | < 50 nM | > 50% | C=CC(=O)N1CCC(c2nc(-c3ccc(Oc4cc(C(F)(F)F)ccn4)cc3)n3c(N)nccc23)C1 (stereo not shown) [C196, 1-(3-(5-amino-3-(4-((4-(trifluoromethyl)pyridin-2-yl)oxy)phenyl)imidazo[1,5-c]pyrimidin-1-yl)pyrrolidin-1-yl)prop-2-en-1-one] |
| < 100 nM | > 50 nM | > 50% | C=CC(=O)Nc1cccc(-c2cc(-c3ccc(C(=O)Nc4ccccn4)c(Cl)c3)cc3cncnc23)c1 [C163, 4-(8-(3-acrylamidophenyl)quinazolin-6-yl)-2-chloro-N-(pyridin-2-yl)benzamide] |
| < 100 nM | < 50 nM | > 50% | C=CC(=O)N1CCC(c2nc(-c3ccc(Oc4ccccn4)cc3)n3c(N)nccc23)C1 (stereo not shown) [C186, 1-(3-(5-amino-3-(4-(pyridin-2-yloxy)phenyl)imidazo[1,5-c]pyrimidin-1-yl)pyrrolidin-1-yl)prop-2-en-1-one] |
| < 100 nM | < 50 nM | > 50% | CC#CC(=O)N1CCC(c2nc(-c3ccc(C(=O)Nc4ccccn4)cc3)n3c(N)nccc23)C1 (stereo not shown) [C204, 4-(5-amino-1-(1-(but-2-ynoyl)pyrrolidin-3-yl)imidazo[1,5-c]pyrimidin-3-yl)-N-(pyridin-2-yl)benzamide] |
| < 100 nM | < 50 nM | > 50% | C=CC(=O)Nc1cccc(-c2cc(-c3ccc(C(=O)Nc4cc(C5CC5)ccn4)cc3)cc3cncnc23)c1 [C131, 4-(8-(3-acrylamidophenyl)quinazolin-6-yl)-N-(4-cyclopropylpyridin-2-yl)benzamide] |
| – | – | < 50% | C=CC(=O)Nc1cccc(-c2cc(-c3ccc(C(=O)Nc4ccccn4)cc3)c(N)c3cnc(N)nc23)c1 [C178, 4-(8-(3-acrylamidophenyl)-2,5-diamino-quinazolin-6-yl)-N-(pyridin-2-yl)benzamide] |
| – | – | > 50% | C=CC(=O)Nc1cccc(-c2cc(-c3ccc(C(=O)Nc4ccccc4)cc3F)cc3cncnc23)c1 [C089, 4-(8-(3-Acrylamidophenyl)quinazolin-6-yl)-3-fluoro-N-phenylbenzamide] |
| – | – | < 50% | C=CC(=O)Nc1cccc(-c2cc(-c3ccc(Oc4ccccn4)cc3)c(N)c3cncnc23)c1 [C179, N-(3-(5-amino-6-(4-(pyridin-2-yloxy)phenyl)quinazolin-8-yl)phenyl)acrylamide] |
| < 100 nM | – | – | CC#CC(=O)N1CCC(c2nc(-c3ccc(C(=O)Nc4cc(C5CC5)ccn4)c(F)c3)n3c(N)nccc23)C1 (stereo not shown) [C247, 4-(5-amino-1-(1-(but-2-ynoyl)pyrrolidin-3-yl)imidazo[1,5-c]pyrimidin-3-yl)-N-(4-cyclopropylpyridin-2-yl)-2-fluorobenzamide] |
| < 100 nM | – | > 50% | C=CC(=O)Nc1cccc(-c2cc(-c3ccc(C(=O)Nc4ccccc4)cc3)cc3cncnc23)c1 [C053, 4-(8-(3-acrylamidophenyl)quinazolin-6-yl)-N-phenylbenzamide] |
| – | – | > 50% | C=CC(=O)N1CCC(c2cc(-c3ccc(Oc4ccccn4)cc3F)cc3cncnc23)C1 (stereo not shown) [C114, 1-(3-(6-(2-fluoro-4-(pyridin-2-yloxy)phenyl)quinazolin-8-yl)pyrrolidin-1-yl)prop-2-en-1-one] |
| – | – | > 50% | CC#CC(=O)N1CCC(c2nc(-c3ccc(Oc4ccccn4)c(OC)c3)n3c(N)nccc23)C1 (stereo not shown) [C213, 1-(3-(5-amino-3-(3-methoxy-4-(pyridin-2-yloxy)phenyl)imidazo[1,5-c]pyrimidin-1-yl)pyrrolidin-1-yl)but-2-yn-1-one] |
| – | – | < 50% | C=CC(=O)N1CCC(c2cc(-c3ccc(C(=O)Nc4cccc(F)c4)nc3)cc3cncnc23)C1 (stereo not shown) [C097, 5-(8-(1-acryloylpyrrolidin-3-yl)quinazolin-6-yl)-N-(3-fluorophenyl)picolinamide] |
| < 100 nM | – | > 50% | C=CC(=O)N1CCCC(c2cc(-c3ccc(Oc4ccccc4)cc3)cc3cnc(N)nc23)C1 (stereo not shown) [C028, 1-(3-(2-amino-6-(4-phenoxyphenyl)quinazolin-8-yl)piperidin-1-yl)prop-2-en-1-one] |

| IC50 (BTK) | IC50 (OCI-Ly10 cells) | inhibition at 0.1 µM (BTK) | Structure (SMILES) |
| --- | --- | --- | --- |
| – | – | < 50% | C=CC(=O)N1CCC(c2cc(-c3ccc(C(=O)Nc4ccccc4)nc3)cc3cncnc23)C1 (stereo not shown) [C060, 5-(8-(1-acryloylpyrrolidin-3-yl)quinazolin-6-yl)-N-phenylpicolinamide] |
| – | – | < 50% | C=CC(=O)Nc1cccc(-c2cc(-c3ccc(C(=O)Nc4ccccn4)cc3F)cc3cncnc23)c1 [C087, 4-(8-(3-Acrylamidophenyl)quinazolin-6-yl)-3-fluoro-N-(pyridin-2-yl)benzamide] |
| – | – | < 50% | C=CC(=O)N1CCC(c2cc(-c3ccc(C(=O)Nc4cc(C#N)ccn4)cc3F)n3cnccc23)C1 (stereo not shown) [C151, 4-(5-(1-acryloylpyrrolidin-3-yl)pyrrolo[1,2-c]pyrimidin-7-yl)-N-(4-cyanopyridin-2-yl)-3-fluorobenzamide] |
| – | – | < 50% | C=CC(=O)N1CCC(c2cc(-c3ccc(Oc4ccccn4)cc3F)cc3cnc(N)nc23)C1 (stereo not shown) [C144, 1-(3-(2-amino-6-(2-fluoro-4-(pyridin-2-yloxy)phenyl)quinazolin-8-yl)pyrrolidin-1-yl)prop-2-en-1-one] |
| – | – | < 50% | C=CC(=O)N1CCC(c2cc(-c3ccc(C(=O)Nc4ccccc4)cc3)cc3cncnc23)C1 (stereo not shown) [C062, 4-(8-(1-acryloylpyrrolidin-3-yl)quinazolin-6-yl)-N-phenylbenzamide] |
| < 100 nM | – | > 50% | C=CC(=O)Nc1cccc(-c2cc(-c3cccnc3)cc3cncnc23)c1 [C007, N-(3-(6-(pyridin-3-yl)quinazolin-8-yl)phenyl)acrylamide] |
| – | – | > 50% | C=CC(=O)Nc1cccc(-c2cc(-c3ccc(C(=O)Nc4cccc(F)c4)nc3)cc3cncnc23)c1 [C092, 5-(8-(3-acrylamidophenyl)quinazolin-6-yl)-N-(3-fluorophenyl)picolinamide] |
| – | – | > 50% | C=CC(=O)Nc1cccc(-c2cc(-c3ccc(Oc4cc(C(F)(F)F)ccn4)cc3Cl)cc3cncnc23)c1 [C088, N-(3-(6-(2-chloro-4-((4-(trifluoromethyl)pyridin-2-yl)oxy)phenyl)quinazolin-8-yl)phenyl)acrylamide] |
| – | – | < 50% | C=CC(=O)N1CCC(c2cc(-c3ccc(C(=O)Nc4ccccn4)cc3)n3cnccc23)C1 (stereo not shown) [C046, 4-(5-(1-acryloylpyrrolidin-3-yl)pyrrolo[1,2-c]pyrimidin-7-yl)-N-(pyridin-2-yl)benzamide] |
| < 100 nM | – | – | CC#CC(=O)N1CCC(c2nc(-c3ccc(Oc4ncccc4F)cc3)n3c(N)nccc23)C1 (stereo not shown) [C228, 1-(3-(5-amino-3-(4-((3-fluoropyridin-2-yl)oxy)phenyl)imidazo[1,5-c]pyrimidin-1-yl)pyrrolidin-1-yl)but-2-yn-1-one] |
| – | – | < 50% | C=CC(=O)N1CCC(c2cc(-c3ccc(Oc4ccccn4)c(OC)c3)n3cnccc23)C1 (stereo not shown) [C167, 1-(3-(7-(3-methoxy-4-(pyridin-2-yloxy)phenyl)pyrrolo[1,2-c]pyrimidin-5-yl)pyrrolidin-1-yl)prop-2-en-1-one] |
| – | – | < 50% | C=CC(=O)Nc1cccc(-c2cc(-c3cccc(Nc4ccccc4)c3)cc3c(N)ncnc23)c1 [C022, N-(3-(4-amino-6-(3-(phenylamino)phenyl)quinazolin-8-yl)phenyl)acrylamide] |
| – | – | < 50% | C=CC(=O)N1CCC(c2cc(-c3ccc(Oc4ccccn4)cc3OC)cc3cnc(N)nc23)C1 (stereo not shown) [C168, 1-(3-(2-amino-6-(2-methoxy-4-(pyridin-2-yloxy)phenyl)quinazolin-8-yl)pyrrolidin-1-yl)prop-2-en-1-one] |
| – | – | < 50% | C=CC(=O)N1CCC(c2cc(-c3ccc(C(=O)Nc4cc(OC)ccn4)cc3F)n3cnccc23)C1 (stereo not shown) [C150, 4-(5-(1-acryloylpyrrolidin-3-yl)pyrrolo[1,2-c]pyrimidin-7-yl)-3-fluoro-N-(4-methoxypyridin-2-yl)benzamide] |
| – | – | < 50% | C=CC(=O)N1CCC(c2cc(-c3ccc(Oc4ccccn4)cc3OC)n3cnccc23)C1 (stereo not shown) [C169, 1-(3-(7-(2-methoxy-4-(pyridin-2-yloxy)phenyl)pyrrolo[1,2-c]pyrimidin-5-yl)pyrrolidin-1-yl)prop-2-en-1-one] |
